{
  "source": "patent US20100305207A1",
  "about": "“GLYCOGEN PHOSPHORYLASE INHIBITOR COMPOUND AND PHARMACEUTICAL COMPOSITION THEREOF” (priority 2007, published 2010)",
  "key": {"male CD rats": {"test_system": "male CD rats", "assay": "In vivo glucagon challenge model", "design": "species or system rat", "details": "glucagon 10 ug/kg + Sandostatin 0.5 mg/kg i.v. 2 hr after dosing, serum glucose 0-20 min", "method": "Jugular vein cannulated male CD rats (220-260 g) (Charles Rivers, Raleigh, N.C.) were received 1-2 days after cannulation, housed individually on Alpha-dri™ bedding (Shepherd Specialty Papers, Inc., Kalamazoo, Mich.) with free access to food (Lab Diet 5001, PMI Nutrition International, Brentwood, Mo.) and water and maintained on a 12 h light/dark cycle at 21° C. and 50% relative humidity for 3-4 days prior to the glucagon challenge studies. On the day of the study, the rats were sorted by body weight into treatment groups (N=4-5) and housed individually in shoe box cages with clean Alpha-dri bedding. The cannula lines were opened by removal of 0.2 ml blood and flushed with 0.2 ml sterile saline. After a one hour acclimation, blood samples were collected to determine basal glucose and the rats were orally dosed with vehicle (5% DMSO: 30% Solutol HS15: 20% PEG400: 45% 25 mM N-methylglucamine) or drug (5 ml/kg). Two hr after drug dosing, a time zero blood sample (0.4 ml) was collected for determination of glucose and the rats were dosed through the jugular vein with Sandostatin, 0.5 mg/kg, (Novartis Pharmaceuticals Corp., East Hanover, N.J.) and glucagon, 10 ug/kg (Bedford Laboratories, Bedford, Ohio). Blood samples were collected after 10 and 20 min for glucose determination. Whole blood was placed in a Terumo Capiject blood collection tube (Terumo Medical Corp., Elkton, Md.), allowed to sit at room temperature for 20-30 minutes and then centrifuged (3,000×G) to obtain serum. Serum levels of glucose were determined using an Olympus AU640™ clinical chemistry immuno-analyzer (Olympus America Inc., Melville, N.Y.). The % reduction (% R) of the vehicle glucose AUC was calculated for each drug treatment using the formula % reduction=100*1−(AUC drug/AUC vehicle), where AUG was calculated from serum glucose values using the equation AUG=(T0+T10)/2*10+(T10+T20)/2*10−(T0*20)."}, "[1]": {"target": "T1, human liver glycogen phosphorylase a (HLGPa) (Homo sapiens, UniProt P06737)", "T1 construct": "creating a full-length cDNA fused at the 5′ end to codons for methionine-glycine-alanine-histidine; 6x histidine tag (leader Met-Gly-Ala-His6-Gly-Gly) (N); Tev protease cleavage site (Glu-Asn-Leu-Tyr-Phe-Gln-Gly-Gly) (N); made in house; host or cells: E. coli (bacterial expression plasmid pTXK1007LTev)", "T1 sequence (P06737 2-847)": "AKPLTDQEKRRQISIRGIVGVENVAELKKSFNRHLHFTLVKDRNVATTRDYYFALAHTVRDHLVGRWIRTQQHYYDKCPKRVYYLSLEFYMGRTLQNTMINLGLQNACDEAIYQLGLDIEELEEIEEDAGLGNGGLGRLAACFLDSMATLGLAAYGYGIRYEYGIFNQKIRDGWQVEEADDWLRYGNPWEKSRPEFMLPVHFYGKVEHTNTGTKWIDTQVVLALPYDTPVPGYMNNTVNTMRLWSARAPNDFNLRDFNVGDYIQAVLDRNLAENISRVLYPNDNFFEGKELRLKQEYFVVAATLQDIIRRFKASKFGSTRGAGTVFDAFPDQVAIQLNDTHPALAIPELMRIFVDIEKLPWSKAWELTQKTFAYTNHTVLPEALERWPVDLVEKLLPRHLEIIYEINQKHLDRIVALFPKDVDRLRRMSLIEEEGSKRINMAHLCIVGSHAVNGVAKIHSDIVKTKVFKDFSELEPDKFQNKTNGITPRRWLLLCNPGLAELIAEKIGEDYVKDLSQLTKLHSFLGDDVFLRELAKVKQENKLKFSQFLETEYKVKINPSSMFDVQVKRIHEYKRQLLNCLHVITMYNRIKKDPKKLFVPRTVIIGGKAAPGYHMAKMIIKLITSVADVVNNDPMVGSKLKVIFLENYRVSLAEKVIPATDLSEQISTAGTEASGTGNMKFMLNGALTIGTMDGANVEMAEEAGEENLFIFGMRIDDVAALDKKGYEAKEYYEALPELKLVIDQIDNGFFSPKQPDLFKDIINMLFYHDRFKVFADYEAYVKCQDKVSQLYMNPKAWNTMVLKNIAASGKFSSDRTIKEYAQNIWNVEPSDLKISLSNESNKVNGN", "assay": "Human liver glycogen phosphorylase a enzymatic activity assay", "assay_type": "biochemical", "details": "15 nM HLGPa, coupled resorufin fluorescence readout, 15 min preincubation; assay run with and without 10 mM glucose, not stated which applies", "source_text": "The purified glycogen phosphorylase (GP) enzyme, wherein glycogen phosphorylase is in the activated “a” state, referred to as human liver glycogen phosphorylase a (HLGPa), can be obtained according to the following procedures.\nHuman liver glycogen phosphorylase cDNA was amplified by polymerase chain reaction (PCR) from a commercially available human liver cDNA library (BD Biosciences). The cDNA was amplified as 2 overlapping fragments using the primers 5′[…]3′ with 5′[…]3′ and 5′[…]3′ with 5′[…]3′. PCR conditions were 94° C. 1 min., 55° C. 1 min., 72° C. 2 min. for 40 cycles using the enzyme Pfu Turbo (Stratagene), 0.5% DMSO, 250 uM each nucleotide triphosphate, and 0.4 uM each primer plus the buffer recommended by the polymerase manufacturer. Each PCR fragment was molecularly cloned and the DNA sequence of each insert was determined. […] The DNA sequence of both strands of the cDNA in pTXK1007LTev was determined. […]\nFrozen purified glycogen phosphorylase (HLGPb) was thawed in at 4° C. then dialyzed overnight into 50 mM HEPES, 100 mM NaCl, pH 7.4. […] The degree of phosphorylation was monitored by following the increase in activity at 10 minute intervals using the assay system outlined below. […]"}},
  "note": "pIC50: −log10 of the molar value.",
  "data": [
    {"smiles": "COCCOc1ccc(C(=O)N[C@H](C(=O)O)[C@@H](C)OC(C)(C)C)c(NC(=O)Nc2c(C)cc(CC3CC3)cc2C)c1", "note": "[Example 1, N-[(2-[({[4-(Cyclopropylmethyl)-2,6-dimethylphenyl]amino}carbonyl)amino]-4-{[2-(methyloxy)ethyl]oxy}phenyl)carbonyl]-O-(1,1-dimethylethyl)-L-threonine]", "values": [
      {"measurement": "% R (% reduction of the vehicle glucose AUC)", "setting": "male CD rats; 0.1 mg/kg oral", "result": 4, "unit": "%"},
      {"measurement": "% R (% reduction of the vehicle glucose AUC)", "setting": "male CD rats; 0.5 mg/kg oral", "result": 36, "unit": "%"},
      {"measurement": "% R (% reduction of the vehicle glucose AUC)", "setting": "male CD rats; 2 mg/kg oral", "result": 48, "unit": "%"},
      {"measurement": "% R (% reduction of the vehicle glucose AUC)", "setting": "male CD rats; 5 mg/kg oral", "result": 76, "unit": "%"},
      {"measurement": "pIC50", "setting": "[1]", "result": 8.40}
    ]}
  ]
}
